Tests used:
[1] = Hit confirmation in dose-response curve in HepG2 cytotoxicity assay, at 72h; type: toxicity, cell-based; parameters: timepoint 72 hour; details: human, HepG2 cells
Plasmodium falciparum [2] = experiment: Hit confirmation in dose-response curve in NF54 nanoGlo assay, at 12h; type: functional, organism-based, Erythrocyte; parameters: timepoint 12 hour; details: Plasmodium falciparum, NF54, Erythrocyte, 12 h
Plasmodium falciparum [3] = experiment: Hit confirmation in dose-response curve in Dd2 pLDH assay, at 72h; type: functional, organism-based; parameters: timepoint 72 hour; details: Dd2, Erythrocyte
Plasmodium falciparum [4] = experiment: Hit confirmation in dose-response curve in NF54 pLDH assay, at 72h; type: functional, organism-based; parameters: timepoint 72 hour; details: NF54, Erythrocyte
Plasmodium falciparum [5] = experiment: Hit confirmation in dose-response curve in NF54 nanoGlo assay, at 72h; type: functional, organism-based, Erythrocyte; parameters: timepoint 72 hour; details: Plasmodium falciparum, NF54, Erythrocyte, 72 h

Row | Structure (SMILES) | IC50 (Plasmodium falciparum [2]) [µM] | IC50 (Plasmodium falciparum [3]) [µM] | IC50 (Plasmodium falciparum [4]) [µM] | IC50 (Plasmodium falciparum [5]) [µM] | IC50 at 72 h [1] [µM]
1 | Cc1cc(N(C)CCC2CC2)nc([C@H](C)N(C)CCC2CC2)n1 | 7.94 | 2.19 | 2.4 | 1.38 | > 10
2 | CCC[N+]1(CC#C[C@@](O)(c2ccccc2)C(C)(CC)CC)CCCCC1 | > 10 | 4.27 | 4.37 | 3.39 | > 10
3 | CC(=O)Nc1ccc(C)cc1S(=O)(=O)N1CC=C(c2c(C)n(Cc3ccccc3C)c3ccccc23)CC1 | 1.86 | 3.47 | 4.47 | 1.7 | > 10
4 | Cc1nn(-c2ccccc2)c2nc(Cc3ccccc3)nc(N3CCCN(C(=O)NC4CCCCC4)CC3)c12 | 2.75 | > 10 | > 10 | 5.01 | > 10
5 | CCC(=O)N1CCc2sc(S(=O)(=O)N3CCN(c4cc(C)ccc4C)CC3)cc2C1 | > 10 | > 10 | > 10 | 5.89 | > 10
6 | Cc1cc(C)c2nc(C)cc(Nc3ccc(O)cc3)c2c1 | 7.41 | 1.26 | 1.66 | 1.23 | > 10
7 | CCc1cccc(NC(=O)N2CCN(C3=CC4=NC[C@H](C)N4C=N3)CC2)c1 | > 10 | 2.95 | 1.12 | 3.09 | > 10
8 | Cc1cc(C)n(-c2nc(Nc3ccc(Cl)cc3)nc(Nc3ccc(Cl)cc3)n2)n1 | 6.76 | 3.63 | > 10 | 2.19 | > 10
9 | COc1ccc2cccc(NC(=O)c3cc(-c4cc(OC)c(OC)c(OC)c4)n[nH]3)c2n1 | 9.33 | > 10 | 9.77 | 2.19 | > 10
10 | CCC(CC)C(=O)Nc1cc(C2CC2)nn1-c1nc(-c2ccccc2)cc(=O)[nH]1 | > 10 | 3.55 | 6.61 | 2.14 | > 10
11 | COc1ccc(CNCc2ccc(C)cc2)cc1Cn1ccnc1 | 2.88 | 1.41 | 2.69 | 1.86 | > 10
12 | NCc1cccc(C(=O)N2CCc3cc4ccc3[C@@H]2c2cccc(c2)OCCCNC(=O)c2cc(ccc2O)O4)c1 | 3.72 | 3.72 | 6.92 | 1.51 | > 10
13 | COc1cccc(-c2nn(-c3nc(-c4ccccc4)cc(C(F)(F)F)n3)c(-c3cccc(OC)c3)c2Cl)c1 | > 10 | > 10 | 8.32 | 6.17 | > 10

Stronger by IC50 (Plasmodium falciparum [2]), values ahead:

Row | IC50 (Plasmodium falciparum [2]) [µM] | IC50 (Plasmodium falciparum [3]) [µM] | IC50 (Plasmodium falciparum [4]) [µM] | IC50 (Plasmodium falciparum [5]) [µM] | Structure (SMILES) | IC50 at 72 h [1] [µM]
14 | 1.55 | 8.51 | 6.76 | 2.34 | COCCCn1c(NS(=O)(=O)c2ccc3ccccc3c2)c(S(=O)(=O)c2ccc(C)cc2)c2nc3ccccc3nc21 | > 10
15 | 1.35 | > 10 | > 10 | 2.57 | Cc1ccc(S(=O)(=O)Nc2c(S(=O)(=O)c3ccc(C)cc3)c3nc4ccccc4nc3n2C[C@H]2CCCO2)cc1 | > 10
16 | 1 | 3.55 | 5.5 | 1.02 | Cc1nn(-c2ccccn2)c(O)c1C(c1ccccc1)c1c(C)nn(-c2ccccn2)c1O | > 10
17 | 0.955 | > 10 | 0.00214 | 0.00195 | CC(C)c1nc(C(=O)Nc2[nH]c(=O)ncc2F)cs1 | > 10
18 | 0.417 | 0.372 | 0.363 | 0.316 | Cc1cnccc1NCCNC1CCN(c2ccc(Cl)cc2)CC1 | 5.25
19 | 0.275 | > 10 | > 10 | 0.309 | CC(C)CCn1nnnc1[C@]1(N(C)C)CCCN(C(=O)c2cccn2C)C1 | > 10

— ChEMBL document CHEMBL4888484, “Replenishing the malaria drug discovery pipeline: Screening and hit evaluation of the MMV Hit Generation Library 1 (HGL1) against asexual blood stage Plasmodium falciparum ,using a nano luciferase reporter read-out” (2022)
